Results published in publication PMC3914206.

Legend:
panel of 442 kinases [1] = target: T1, panel of 442 kinases (Homo sapiens, UniProt O14730); format: binding; conditions: Compound Concentration 10 µM
T1 construct: purchased KINOMEscan
T1 sequence (O14730 1-519): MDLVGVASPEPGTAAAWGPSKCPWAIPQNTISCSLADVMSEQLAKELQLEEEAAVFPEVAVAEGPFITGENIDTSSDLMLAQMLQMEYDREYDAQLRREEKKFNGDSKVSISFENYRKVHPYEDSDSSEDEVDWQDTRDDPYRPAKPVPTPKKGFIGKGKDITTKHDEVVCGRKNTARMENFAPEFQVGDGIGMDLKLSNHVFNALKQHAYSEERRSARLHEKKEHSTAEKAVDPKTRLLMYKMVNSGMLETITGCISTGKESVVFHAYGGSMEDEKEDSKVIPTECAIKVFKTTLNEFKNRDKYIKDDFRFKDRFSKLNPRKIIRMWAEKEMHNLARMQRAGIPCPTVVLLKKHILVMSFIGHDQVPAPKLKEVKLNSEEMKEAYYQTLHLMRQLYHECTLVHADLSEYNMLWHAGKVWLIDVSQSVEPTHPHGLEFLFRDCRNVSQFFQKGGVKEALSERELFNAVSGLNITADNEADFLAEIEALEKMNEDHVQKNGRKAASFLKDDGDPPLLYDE
Excerpt: (§1) We assessed the selectivity of members of this scaffold using the KINOMEscan methodology across a near comprehensive panel of 442 kinases [[18,27]].

panel of 442 kinases [2] = target: T2, panel of 442 kinases (Homo sapiens, UniProt Q13470); format: binding; conditions: kinase TNK1; compound concentration 10 µM
T2 construct: purchased KINOMEscan
T2 sequence (Q13470 1-666): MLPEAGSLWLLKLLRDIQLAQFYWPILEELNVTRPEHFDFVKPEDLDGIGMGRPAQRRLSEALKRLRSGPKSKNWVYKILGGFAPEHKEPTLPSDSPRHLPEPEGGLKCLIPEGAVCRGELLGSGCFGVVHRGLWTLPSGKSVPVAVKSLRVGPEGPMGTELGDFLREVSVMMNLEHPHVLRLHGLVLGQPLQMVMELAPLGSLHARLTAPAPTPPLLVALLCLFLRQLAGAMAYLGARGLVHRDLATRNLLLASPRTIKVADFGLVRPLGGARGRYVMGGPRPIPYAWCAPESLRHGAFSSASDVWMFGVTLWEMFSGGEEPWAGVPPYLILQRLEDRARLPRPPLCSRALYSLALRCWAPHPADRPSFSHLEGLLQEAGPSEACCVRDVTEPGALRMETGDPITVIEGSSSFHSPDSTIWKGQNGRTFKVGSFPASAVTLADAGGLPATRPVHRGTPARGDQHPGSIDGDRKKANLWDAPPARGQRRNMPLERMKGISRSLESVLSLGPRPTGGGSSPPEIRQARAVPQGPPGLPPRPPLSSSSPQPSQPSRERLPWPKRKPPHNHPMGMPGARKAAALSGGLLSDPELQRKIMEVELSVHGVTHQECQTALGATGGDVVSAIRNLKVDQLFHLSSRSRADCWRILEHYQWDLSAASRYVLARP
Excerpt: as §1

| Structure (SMILES) | KINOMEscan: RIOK3 (panel of 442 kinases [1]) | % Ctrl, TNK1 (panel of 442 kinases [2]) [% Ctrl] |
| --- | --- | --- |
| COc1cc(C(=O)N2CCC(N3CCN(C)CC3)CC2)ccc1Nc1ncc2c(n1)N(C1CCCC1)c1ccccc1C(=O)N2C [Compound 25, 11-cyclopentyl-2-((2-methoxy-4-(4-(4-methylpiperazin-1-yl)piperidine-1-carbonyl)phenyl)amino)-5-methyl-5H-benzo[e]pyrimido[5,4-b][1,4]diazepin-6(11H)-one] | 84 | 7.8 |
| CCOc1cc(C(=O)N2CCC(N3CCN(C)CC3)CC2)ccc1Nc1ncc2c(n1)N(C1CCCC1)c1ccccc1C(=O)N2C [Compound 26] | 89 | 53 |
| COc1cc(C(=O)N2CCC(N3CCN(C)CC3)CC2)ccc1Nc1ncc2c(n1)N1CCc3cccc(c31)C(=O)N2C [Compound 24] | 74 | 5 |
| COc1cc(C(=O)N2CCC(N3CCN(C)CC3)CC2)ccc1Nc1ncc2c(n1)N(C)c1ccccc1C(=O)N2C [15 (LRRK2-IN-1)] | 85 | 2.8 |
